One may read the IC50 as the concentration at which inhibition is half-maximal.

Consider 49 compounds from ChEMBL document CHEMBL1128553, “Synthesis of 1,4,7,8,9,10-hexahydro-9-methyl-6-nitropyrido[3,4-f]- quinoxaline-2,3-dione and related quinoxalinediones: characterization of alpha-amino-3-hydroxy-5-methyl-4-isoxazolepropionic acid (and N-methyl-D-aspartate) receptor and anticonvulsant activity” (J Med Chem, 1995).

The species named for assay [1] is Rattus norvegicus. Put plainly: Concentration of compound that inhibits by 50% LDH released by 24 hr application of 500 uM kainate. In kind it is functional, organism-based. In general terms: LDH in the medium is a marker of cell lysis.
Assay [2] has as its target T1, Glutamate receptor ionotropic, AMPA (Rattus norvegicus, UniProt P19490+P19491+P19492+P19493).
Description: Antagonistic activity against Ionotropic glutamate receptor AMPA induced LDH release in cultured rat cortical neurons after 24 hr 100 uM AMPA
For assay [3], the target named is Glutamate receptor ionotropic, kainate. Put plainly: Binding affinity for the ionotropic glutamate receptor kainate in rat brain synaptic membranes using [3H]kainate as radioligand. In kind it is cell membranes.
The target in assay [4] is T1, Glutamate receptor ionotropic, AMPA. The source holds these as a separate data set.
Description: Binding affinity was determined against ionotropic glutamate receptor AMPA in rat brain synaptic membranes using [3H]AMPA as radioligand
The species named for assay [5] is Rattus norvegicus. Briefly: Concentration of compound that inhibits by 50% depolarizations induced by 10 uM AMPA. In kind it is functional.
The target of assay [6] is Glutamate receptor ionotropic, NMDA 1 (Rattus norvegicus, UniProt P35439). Briefly: Affinity for N-methyl-D-aspartate glutamate receptor 1 in rat brain synaptic membranes, using [3H]glycine as radioligand. In kind it is cell membranes.
The target of assay [7] is Glutamate receptor ionotropic, kainate. Briefly: Antagonistic activity against Ionotropic glutamate receptor kainate induced LDH release in cultured cortical neurons in rat after 24 hr application of 500 uM of kainate. In kind it is functional.
Assay [8] deals with T1, Glutamate receptor ionotropic, AMPA. The source holds these as a separate data set.
Description: Inhibition of Ionotropic glutamate receptor AMPA induced depolarization in rat cortical wedge by application of 10 uM of AMPA
For assay [9], the species on record is Rattus norvegicus. Put plainly: Concentration of compound that inhibits by 50% LDH released by 24 hr application of 100 uM AMPA. In kind it is functional, organism-based.

Consider `CCN1CCc2c(c([N+](=O)[O-])cc3nc(O)c(O)nc23)C1`, for which the IC50 in assay [1] worked out at 26 µM; in assay [2], 25 µM; in assay [3], 0.49 µM; in assay [4] it was 0.54 µM; in [5] it was 14 µM; in assay [6] it was 5 µM. Further, the IC50 in assay [7] was 26 µM; in [8] it was 14 µM; in assay [9], 25 µM.

On to `Cc1cc2[nH]c(=O)c(=O)[nH]c2c2c1CN(C)CC2`, for which the results for the IC50 in [3], in assay [4] and in [6] were 6.7 µM, 17.6 µM and above 10 µM, respectively.

With `O=c1[nH]c2ccc3c(c2[nH]c1=O)NCCC3`, the half-inhibitory concentration (IC50) in [3] came to 11 µM; in [4], 2.2 µM; in assay [6], 1.3 µM.

Turning to `CCN1CCc2c(c(Br)cc3[nH]c(=O)c(=O)[nH]c23)C1`, the IC50 in assay [3] amounted to 14 µM; in assay [4], 1.3 µM; in assay [6], 267 µM.

Regarding `Oc1nc2ccc3c(c2nc1O)CCNC3`, the values for the IC50 in [3] and in assay [4] were 17 µM and 12 µM, respectively.

`CCC(C)CN1CCc2c([N+](=O)[O-])cc3[nH]c(=O)c(=O)[nH]c3c2C1` (configuration not stated): the concentration for half-maximal inhibition (IC50) in assay [1] amounted to 11 µM; in assay [2] it was 8 µM; in [3], 0.28 µM; in assay [4] it was 0.28 µM; in [6] it was 1.3 µM; in assay [7], 11 µM. The IC50 in assay [9] amounted to 8 µM.

As for `CC(C)N1CCc2c([N+](=O)[O-])cc3[nH]c(=O)c(=O)[nH]c3c2C1`, the IC50 in [1] was 7 µM; in [2], 6 µM; in assay [3] it was 0.29 µM; in assay [4] it was 0.153 µM; in assay [5], 1.5 µM; in [6], 0.93 µM. Also, the 50% inhibitory concentration (IC50) in [7] came out at 7 µM; in [8] it was 1.5 µM; in assay [9], 6 µM.

Take `COC(=O)c1cc2nc(O)c(O)nc2c2c1CN(C)CC2`: the 50% inhibitory concentration (IC50) in assay [3] was 22 µM; in assay [4], 44 µM.

Take `Oc1nc2ccc3c(c2nc1O)CCCN3`: the values for the IC50 in [3] and in [4] were 8.9 µM and 24 µM, respectively.

Consider `O=c1[nH]c2cc(-n3ccnc3)c([N+](=O)[O-])cc2[nH]c1=O` [YM-90K], for which the IC50 in [4] was 0.2 µM.

The compound `O=C(NS(=O)(=O)c1ccccc1)c1nc2cc(Cl)c(Cl)cc2[nH]c1=O` showed an IC50 in assay [4] of 4.3 µM.

Turning to `CCOC(=O)C(=O)N1CCCc2c1ccc1[nH]c(=O)c(=O)[nH]c21`, the IC50 in assay [3] stood at 20 µM; in assay [4] it was 13 µM; in assay [6], 50 µM.

As to `CCC(C)CN1CCc2c(Br)cc3nc(O)c(O)nc3c2C1` (configuration not stated), the IC50 in assay [1] is above 30 µM; in assay [2], above 30 µM; in assay [3], 2.9 µM; in [4], above 100 µM; in assay [5], above 30 µM; in [6] it was above 100 µM. The 50% inhibitory concentration (IC50) in assay [7], in assay [8] and in assay [9] was above 30 µM in each case.

Take `CCCN1CCc2c(ccc3[nH]c(=O)c(=O)[nH]c23)C1`: the IC50 in [3] is 23 µM; in assay [4], 18 µM.

Turning to `CN1CCc2c(ccc3[nH]c(=O)c(=O)[nH]c23)C1`, the concentration for half-maximal inhibition (IC50) is 29.2 µM in assay [3], 6.5 µM in [4] and above 100 µM in [6].

Regarding `CCN1CCc2c([N+](=O)[O-])cc3[nH]c(=O)c(=O)[nH]c3c2C1`, the IC50 in [1] came out at 7 µM; in [2], 6 µM; in assay [3] it was 0.52 µM; in assay [4], 0.166 µM; in [5], 0.7 µM; in assay [6], 1.4 µM. Also, the values for the IC50 in assay [7], in assay [8] and in assay [9] were 7 µM, 0.7 µM and 6 µM, respectively.

Turning to `CN1CCc2c(Br)cc3[nH]c(=O)c(=O)[nH]c3c2C1`, the IC50 in assay [3] stood at 2.83 µM; in [4] it was 2.84 µM; in [6], 4 µM.

Consider `O=c1[nH]c2cc(Br)c3c(c2[nH]c1=O)CNCC3`, for which the 50% inhibitory concentration (IC50) in [3] worked out at 1.5 µM; in assay [4], 3.5 µM; in [6] it was 1 µM.

Consider `CC(=O)Nc1cc2[nH]c(=O)c(=O)[nH]c2c2c1CCN(C)C2`, for which the concentration for half-maximal inhibition (IC50) in [3], in [4] and in assay [6] was above 100 µM in each case.

`O=c1[nH]c2cc(Br)c3c(c2[nH]c1=O)CCCN3` returned an IC50 in [4] of 9 µM.

The compound `COC(=O)CC1c2ccc(Cl)cc2NC(=O)C1[N+](=O)[O-]` (configuration not stated) had a concentration for half-maximal inhibition (IC50) in [4] of 139 µM.

Take `CCCCCCCN1CCc2c(c([N+](=O)[O-])cc3[nH]c(=O)c(=O)[nH]c23)C1`: the IC50 in assay [3] is 79 µM; in assay [4] it was 5.8 µM; in assay [6] it was above 10 µM.

In [4], `CCc1cnc2c(O)nc3cc([N+](=O)[O-])c(-n4ccnc4)cc3n12` returned an IC50 of 0.02 µM.

As for `CCC(C)N1CCc2c([N+](=O)[O-])cc3[nH]c(=O)c(=O)[nH]c3c2C1` (configuration not stated), the concentration for half-maximal inhibition (IC50) in assay [2] was determined as 15 µM; in assay [3], 0.85 µM; in assay [4], 0.28 µM; in [5] it was 1.6 µM; in assay [6], 0.93 µM; in [8], 1.6 µM. For the same compound, in assay [9], the IC50 amounted to 15 µM.

With `CCN1CCc2c(Br)cc3[nH]c(=O)c(=O)[nH]c3c2C1`, the IC50 in [3] was determined as 6.4 µM; in [4] it was 0.74 µM; in [6], 0.62 µM.

With `CN1CCc2c(c(S(=O)(=O)c3ccccc3)cc3nc(O)c(O)nc23)C1`, the IC50 in assay [3] turned out to be 72 µM; in assay [4], 96 µM.

As to `CN1CCc2c(c(Br)cc3[nH]c(=O)c(=O)[nH]c23)C1`, the IC50 in [3] came out at 1.76 µM; in assay [4], 1.86 µM; in assay [6], 4.3 µM.

In assay [4], `CN1CCCc2c1ccc1nc(O)c(O)nc21` yielded a 50% inhibitory concentration (IC50) of 24 µM.

Consider `CN1Cc2c(S(=O)(=O)N(C)C)cc3c(N=O)c(O)[nH]c3c2C1`, for which the IC50 in [4] turned out to be 0.6 µM.

In the case of `CC(C)CCN1CCc2c([N+](=O)[O-])cc3[nH]c(=O)c(=O)[nH]c3c2C1`, the IC50 in assay [1] came out at 7 µM; in assay [2] it was 5 µM; in assay [3], 1.18 µM; in assay [4] it was 0.11 µM; in assay [6], 0.86 µM; in assay [7] it was 7 µM. In assay [9], the half-maximal inhibitory concentration (IC50) is 5 µM.

For `CC(C)CCN1CCc2ccc3nc(O)c(O)nc3c2C1`, the values for the IC50 in assay [3] and in assay [4] were 25 µM and 123 µM, respectively.

As to `CN1CCc2c(c(Br)c([N+](=O)[O-])c3[nH]c(=O)c(=O)[nH]c23)C1`, the figures for the IC50 in [3], in assay [4] and in [6] were 5.7 µM, 1.9 µM and above 10 µM, respectively.

For `CCCN1CCc2c(c(Br)cc3nc(O)c(O)nc23)C1`, the IC50 in [3] is 6.4 µM; in [4] it was 1.1 µM; in [6] it was above 10 µM.

`CC(C)CCN1CCc2c(Br)cc3nc(O)c(O)nc3c2C1`: the half-maximal inhibitory concentration (IC50) in assay [1] was above 30 µM; in assay [2] it was above 30 µM; in [3], 0.68 µM; in assay [4], 9.7 µM; in assay [5], 16.5 µM; in [6], above 10 µM. Further, the IC50 in assay [7] is above 30 µM; in assay [8] it was 16.5 µM; in assay [9], above 30 µM.

For the compound `CCC(C)CN1CCc2c(c([N+](=O)[O-])cc3[nH]c(=O)c(=O)[nH]c23)C1` (configuration not stated), the figures for the half-maximal inhibitory concentration (IC50) in assay [3], in assay [4] and in assay [6] were 15 µM, 1.3 µM and above 100 µM, respectively.

With `CCCN1CCc2c(c([N+](=O)[O-])cc3[nH]c(=O)c(=O)[nH]c23)C1`, the IC50 turned out to be 1.7 µM in [3], 2.8 µM in assay [4] and 20 µM in assay [6].

With `CN1CCc2ccc3[nH]c(=O)c(=O)[nH]c3c2C1`, the IC50 in assay [3] was 71.2 µM; in [4], 18 µM; in assay [6], above 100 µM.

Turning to `CN1CCc2c(c(C(=O)O)cc3nc(O)c(O)nc23)C1`, the IC50 stood at 36 µM in assay [3] and 56 µM in assay [4].

In [4], `CCC(C)CN1CCc2ccc3nc(O)c(O)nc3c2C1` (configuration not stated) gave a 50% inhibitory concentration (IC50) above 100 µM.

Take `CCN1CCc2c(ccc3nc(O)c(O)nc23)C1`: the figures for the IC50 in assay [3] and in assay [4] were 37 µM and 21 µM, respectively.

For the compound `CCC(C)CN1CCc2c(ccc3nc(O)c(O)nc23)C1` (configuration not stated), the 50% inhibitory concentration (IC50) is 48 µM in assay [3], above 100 µM in assay [4] and above 100 µM in assay [6].

With `CCCCCCCN1CCc2c(ccc3[nH]c(=O)c(=O)[nH]c23)C1`, the 50% inhibitory concentration (IC50) in assay [3] is 45 µM; in assay [4], above 100 µM; in assay [6] it was above 100 µM.

Turning to `CN1CCc2c(N)cc3[nH]c(=O)c(=O)[nH]c3c2C1`, the values for the IC50 in assay [3], in [4] and in [6] were 28 µM, 100 µM and above 100 µM, respectively.

For the compound `CCC(C)N1CCc2ccc3nc(O)c(O)nc3c2C1` (configuration not stated), the concentration for half-maximal inhibition (IC50) in assay [3] is 21 µM; in [4], above 100 µM.

As to `CCN1CCc2ccc3[nH]c(=O)c(=O)[nH]c3c2C1`, the results for the concentration for half-maximal inhibition (IC50) in [3] and in assay [4] were 20 µM and 41 µM, respectively.

`CCC(C)N1CCc2c(Br)cc3nc(O)c(O)nc3c2C1` (configuration not stated): the half-maximal inhibitory concentration (IC50) is 0.43 µM in [3], 2.5 µM in [4] and above 10 µM in [6].

Consider `CN1CCc2c(c([N+](=O)[O-])cc3[nH]c(=O)c(=O)[nH]c23)C1`, for which the IC50 in assay [1] was 9 µM; in assay [2], 18 µM; in assay [3], 0.38 µM; in assay [4], 0.29 µM; in assay [5], 1.8 µM; in assay [6], 4.9 µM. Moreover, the IC50 in [7] stood at 9 µM; in assay [8], 1.8 µM; in assay [9], 18 µM.

The compound `CCOC(=O)c1nc2cc(Br)c3c(c2nc1O)CCN(C)C3` came in with an IC50 in [4] above 100 µM.

As to `CN1CCc2c(C#N)cc3[nH]c(=O)c(=O)[nH]c3c2C1`, the half-inhibitory concentration (IC50) was 2.4 µM in assay [3], 1.36 µM in assay [4] and 1.4 µM in [6].
